Paper PMC11233931, “Remodeling tumor‐associated macrophage for anti‐cancer effects by rational design of irreversible inhibition of mitogen‐activated protein kinase‐activated protein kinase 2” (MedComm, 2024)

Key:
Assay in all cases: Eurofins kinase selectivity profile against 380 other human recombinant kinases (Table S2)
Assay type in all cases: biochemical
[1] = target: T1, 380 human recombinant protein kinases (Homo sapiens, UniProt P00519, Y253F); conditions: Abl(Y253F)(h), read-out: Inhibition rate
T1 construct: purchased Eurofins (Celle Lévescault)
Outline: (§1)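 The inhibitor was sent to a contract lab and screened at various concentrations against 380 human recombinant protein kinases. This served as a counter-screen for MK2 specificity.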

[2] = target: T2, 380 human recombinant protein kinases (Homo sapiens, UniProt Q2M2I8); conditions: AAK1(h), read-out: Inhibition rate
T2 construct: purchased Eurofins (Celle Lévescault)
Outline: as §1

[3] = target: T3, 380 human recombinant protein kinases (Homo sapiens, UniProt P36888); conditions: Flt3(h), read-out: Inhibition rate
T3 construct: purchased Eurofins (Celle Lévescault)
T3 sequence (P36888 27-993): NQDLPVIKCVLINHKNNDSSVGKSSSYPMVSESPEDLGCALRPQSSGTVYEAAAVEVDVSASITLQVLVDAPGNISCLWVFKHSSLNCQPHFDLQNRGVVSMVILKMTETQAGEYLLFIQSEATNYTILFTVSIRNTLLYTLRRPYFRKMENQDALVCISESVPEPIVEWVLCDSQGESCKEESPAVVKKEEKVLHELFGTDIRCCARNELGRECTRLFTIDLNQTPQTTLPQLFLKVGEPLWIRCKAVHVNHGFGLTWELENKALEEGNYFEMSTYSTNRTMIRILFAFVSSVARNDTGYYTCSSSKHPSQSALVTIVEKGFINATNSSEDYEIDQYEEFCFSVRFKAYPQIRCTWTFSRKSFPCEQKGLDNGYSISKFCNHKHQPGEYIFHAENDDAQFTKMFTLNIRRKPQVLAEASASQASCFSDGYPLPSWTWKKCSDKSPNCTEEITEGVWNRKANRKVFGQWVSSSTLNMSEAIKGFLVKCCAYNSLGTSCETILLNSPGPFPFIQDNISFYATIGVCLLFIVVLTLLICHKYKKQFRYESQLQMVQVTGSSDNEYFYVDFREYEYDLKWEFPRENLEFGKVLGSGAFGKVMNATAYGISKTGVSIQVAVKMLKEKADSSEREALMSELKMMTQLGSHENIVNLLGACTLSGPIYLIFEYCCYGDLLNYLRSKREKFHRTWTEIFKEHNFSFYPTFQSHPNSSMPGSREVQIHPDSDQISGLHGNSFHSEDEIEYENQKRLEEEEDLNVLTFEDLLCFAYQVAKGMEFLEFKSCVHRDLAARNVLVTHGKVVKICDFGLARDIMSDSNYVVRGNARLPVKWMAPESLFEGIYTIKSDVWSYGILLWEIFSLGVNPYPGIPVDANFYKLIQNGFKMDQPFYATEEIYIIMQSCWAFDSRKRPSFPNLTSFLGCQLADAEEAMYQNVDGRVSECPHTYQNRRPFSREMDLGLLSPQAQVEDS
Outline: as §1

[4] = target: T4, 380 human recombinant protein kinases (Homo sapiens, UniProt Q14012); conditions: CaMKI(h), read-out: Inhibition rate
T4 construct: purchased Eurofins (Celle Lévescault)
Outline: as §1

[5] = target: T5, 380 human recombinant protein kinases (Homo sapiens, UniProt Q04759); conditions: PKCθ(h), read-out: Inhibition rate
T5 construct: purchased Eurofins (Celle Lévescault)
Outline: as §1

[6] = target: T6, 380 human recombinant protein kinases (Homo sapiens, UniProt P43405); conditions: Syk(h), read-out: Inhibition rate (%)
T6 construct: purchased Eurofins (Celle Lévescault)
Outline: as §1

[7] = target: T7, 380 human recombinant protein kinases (Homo sapiens, UniProt Q15119); conditions: PDHK2(h), read-out: Inhibition rate
T7 construct: purchased Eurofins (Celle Lévescault)
Outline: as §1

[8] = target: T8, 380 human recombinant protein kinases (Homo sapiens, UniProt Q8TDX7); conditions: NEK7(h), read-out: Inhibition rate
T8 construct: purchased Eurofins (Celle Lévescault)
Outline: as §1

T5 sequence (Q04759 whole entry): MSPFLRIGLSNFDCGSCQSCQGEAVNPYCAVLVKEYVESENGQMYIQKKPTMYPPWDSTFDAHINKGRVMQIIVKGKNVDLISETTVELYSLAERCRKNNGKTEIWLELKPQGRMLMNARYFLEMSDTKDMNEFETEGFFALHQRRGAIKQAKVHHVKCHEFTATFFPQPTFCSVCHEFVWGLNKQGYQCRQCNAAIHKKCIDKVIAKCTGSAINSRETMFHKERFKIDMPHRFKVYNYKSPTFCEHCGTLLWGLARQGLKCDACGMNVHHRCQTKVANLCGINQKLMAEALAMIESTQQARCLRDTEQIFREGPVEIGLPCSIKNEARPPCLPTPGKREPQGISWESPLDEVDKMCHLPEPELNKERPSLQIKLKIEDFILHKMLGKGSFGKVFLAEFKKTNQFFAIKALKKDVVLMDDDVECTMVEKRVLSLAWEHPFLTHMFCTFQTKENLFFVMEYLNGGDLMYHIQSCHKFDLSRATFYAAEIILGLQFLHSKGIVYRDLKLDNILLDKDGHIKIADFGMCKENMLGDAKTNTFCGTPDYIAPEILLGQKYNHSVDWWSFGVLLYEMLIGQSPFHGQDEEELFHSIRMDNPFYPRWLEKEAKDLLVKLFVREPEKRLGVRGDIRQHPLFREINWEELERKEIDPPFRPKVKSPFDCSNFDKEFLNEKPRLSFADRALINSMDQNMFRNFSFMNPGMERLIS
T8 sequence (Q8TDX7 whole entry): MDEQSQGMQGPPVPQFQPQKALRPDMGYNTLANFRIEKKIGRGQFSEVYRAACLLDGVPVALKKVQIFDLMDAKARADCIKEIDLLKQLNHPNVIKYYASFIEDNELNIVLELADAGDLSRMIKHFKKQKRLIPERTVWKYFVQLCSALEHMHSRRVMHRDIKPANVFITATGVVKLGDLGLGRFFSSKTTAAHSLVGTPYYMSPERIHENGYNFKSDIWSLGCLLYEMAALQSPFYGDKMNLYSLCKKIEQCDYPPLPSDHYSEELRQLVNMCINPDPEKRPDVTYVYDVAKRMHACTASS
T2 sequence (Q2M2I8 whole entry): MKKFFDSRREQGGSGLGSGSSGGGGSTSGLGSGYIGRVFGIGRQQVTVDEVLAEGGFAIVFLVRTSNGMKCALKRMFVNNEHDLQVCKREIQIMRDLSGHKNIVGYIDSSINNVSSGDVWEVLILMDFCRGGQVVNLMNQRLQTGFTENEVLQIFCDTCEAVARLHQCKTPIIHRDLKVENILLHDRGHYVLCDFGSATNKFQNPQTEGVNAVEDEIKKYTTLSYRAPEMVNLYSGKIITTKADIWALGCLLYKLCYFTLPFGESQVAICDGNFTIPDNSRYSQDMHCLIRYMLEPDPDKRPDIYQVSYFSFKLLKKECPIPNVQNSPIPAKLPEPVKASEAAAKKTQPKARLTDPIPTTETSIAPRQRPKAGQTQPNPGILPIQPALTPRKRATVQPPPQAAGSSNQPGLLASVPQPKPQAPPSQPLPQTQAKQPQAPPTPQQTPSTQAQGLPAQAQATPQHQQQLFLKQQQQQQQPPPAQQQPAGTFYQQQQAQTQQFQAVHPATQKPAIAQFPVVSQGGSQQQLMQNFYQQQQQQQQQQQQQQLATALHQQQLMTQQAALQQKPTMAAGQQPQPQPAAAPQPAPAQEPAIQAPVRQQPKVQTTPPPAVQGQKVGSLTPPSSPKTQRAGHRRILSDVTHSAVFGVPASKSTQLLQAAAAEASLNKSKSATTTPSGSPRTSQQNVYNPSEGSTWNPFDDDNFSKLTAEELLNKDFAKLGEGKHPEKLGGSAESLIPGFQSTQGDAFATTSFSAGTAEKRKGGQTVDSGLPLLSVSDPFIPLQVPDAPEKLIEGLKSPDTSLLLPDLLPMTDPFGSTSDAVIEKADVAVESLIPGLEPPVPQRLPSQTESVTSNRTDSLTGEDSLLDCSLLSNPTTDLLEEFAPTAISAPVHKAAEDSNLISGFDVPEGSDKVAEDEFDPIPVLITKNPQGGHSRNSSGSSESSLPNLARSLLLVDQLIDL
T4 sequence (Q14012 whole entry): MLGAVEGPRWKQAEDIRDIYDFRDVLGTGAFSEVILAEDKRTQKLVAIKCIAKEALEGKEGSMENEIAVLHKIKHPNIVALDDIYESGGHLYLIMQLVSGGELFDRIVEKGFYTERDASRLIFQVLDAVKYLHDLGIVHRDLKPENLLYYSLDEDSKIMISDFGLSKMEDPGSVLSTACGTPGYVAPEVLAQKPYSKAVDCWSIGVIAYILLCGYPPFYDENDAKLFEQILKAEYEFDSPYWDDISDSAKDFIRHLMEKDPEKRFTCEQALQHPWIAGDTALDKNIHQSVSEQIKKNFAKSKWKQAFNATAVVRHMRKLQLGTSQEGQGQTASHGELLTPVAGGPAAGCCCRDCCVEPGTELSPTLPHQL

## C=CC(=O)Nc1cc(-c2cc(-c3cc4c([nH]3)CCNC4=O)ccn2)ccc1OC(F)(F)F [compound 11]
[1]; 10 nM
  inhibition at 0.01 µM: 0%
[1]; 100 nM
  inhibition at 0.1 µM: 2%
[1]; 1000 nM
  inhibition at 1 µM: 21%
[2]; 10 nM
  inhibition at 0.01 µM: -1%
[2]; 100 nM
  inhibition at 0.1 µM: 11%
[2]; 1000 nM
  inhibition at 1 µM: 39%
[3]; 10 nM
  inhibition at 0.01 µM: -12%
[3]; 100 nM
  inhibition at 0.1 µM: -5%
[3]; 1000 nM
  inhibition at 1 µM: 24%
[4]; 10 nM
  inhibition at 0.01 µM: -3%
[4]; 100 nM
  inhibition at 0.1 µM: -3%
[4]; 1000 nM
  inhibition at 1 µM: -6%
[5]; 10 nM
  inhibition at 0.01 µM: 6%
[5]; 100 nM
  inhibition at 0.1 µM: 0%
[5]; 1000 nM
  inhibition at 1 µM: 4%
[6]; 10 nM
  inhibition at 0.01 µM: 5%
[6]; 100 nM
  inhibition at 0.1 µM: -15%
[6]; 1000 nM
  inhibition at 1 µM: -9%
[7]; 10 nM
  inhibition at 0.01 µM: -8%
[7]; 100 nM
  inhibition at 0.1 µM: 6%
[7]; 1000 nM
  inhibition at 1 µM: 0%
[8]; 10 nM
  inhibition at 0.01 µM: -5%
[8]; 100 nM
  inhibition at 0.1 µM: -2%
[8]; 1000 nM
  inhibition at 1 µM: 3%
